Data on seven compounds can be found in US9597312B2, “Treatment of cognitive disorders associated with abnormal dendritic spines using PKC activators” (Cognitive Research Enterprises, Inc., priority 2010, dated 2017).

For orientation: EC50 means the concentration needed to bring the measured effect to its halfway point.

The test system of assay [1] is PKC. Conditions: cited from earlier work.
Assay [2] concerns Aβ(1-42). As to conditions: transgenic mice with human AD genes; cited from earlier work.
The subject of assay [3] is hippocampal CA1 neurons. Briefly: DiI staining and confocal microscopy of dendritic spines of hippocampal CA1 neurons in Fragile X mice. The class given is in vivo. As to conditions: Fragile X transgenic mice. On the procedure: (§1) Non-treated groups received the same volume of vehicle at the same frequency of administration as the treated groups.
The tips of glass electrodes, prepared as used for electrophysiology, were immersed in 5% (wt/vol) 1, 1′-dioctadecyl-3,3,3′,3′-tetramathyl-indocarbocyanineperchlorate (DiI, Molecular Probes/Invitrogen) in dichloromethane (Sigma-Aldrich) and air-dried at room temperature for 30 min. The tips of DiI-coated electrodes were inserted, broken, and left in the strata oriens of the CA1 area of hippocampal sections at […] thickness. After maintenance in PBS at 4° C. overnight to allow DiI to diffuse in the plasma membrane of the CA1 neurons, hippocampal sections were then resectioned to 35 μm thickness and mounted on glass slides, using PBS as the mounting medium. Dendritic spines stained with DiI in the strata radiatum were collected using a Zeiss Axiovert 200M microscope equipped with 510 confocal scanning system at 568 nm/>510 nm (excitation/emission). A stack of confocal images (taken every 0.4 μm) was collected to obtain all dendritic spines of an individual dendritic shaft. During analysis, a stack of images was retrieved with the ImageJ program (National Institutes of Health). Individual spines identified on one image were also verified on adjacent stacked images to approximate the three-dimensional structure of this spine. Those spines, which had head diameters more than three times larger than the diameter of their necks (FIGS. 1 d and e), were identified as mushroom spines. Approximately four to six stacked image sets were obtained from each animal. All image sets were pooled and coded; therefore, images were identified with unknown animal number and unknown treatment (double-blind protocol).
(§2) The mice were then sacrificed and hippocampal sections were removed and treated as described in Example 2.

Assay [4] concerns ischemia-induced deficits. As to conditions: postischemic/hypoxic treatment; cited from earlier work.
For assay [5], the system named is synaptophysin. Briefly: Synaptophysin immunohistochemistry in hippocampus of aged rats. The class given is in vivo. The method, then:
Under anesthesia (choral hydrate; Sigma-Aldrich; 400 mg/kg body weight, i.p.), rats were perfused through the heart with PBS by gravity to wash out the blood and then lightly fixed with 150 ml of 4% paraformaldehyde in PBS at room temperature, instead of a cold fixative, because hypothermia can reduce the number of dendritic spines. Brains were removed and postfixed for 10 min. Thereafter, hippocampi were isolated from the right brain hemispheres, and dorsal hippocampi were sectioned with a vibratome at 400 μm for DiI staining and immunohistochemistry.
Hippocampal slices at 400 μm thickness were further immersed in the fixative (4% paraformaldehyde in PBS) for 30 min at room temperature and then sectioned at 35 μm thickness by using a vibratome. Sections were then processed for immunohistochemistry as described in Hongpaisan et al., J Neurosci., 2004, 24:10878-10887. […]
All data were quantified by using the ImageJ program. The appearance of spinophilin and synaptophysin profiles in a 63-μm×63-μm image taken from the superficial part of the stratum radiatum were analyzed with the photographic negative after background subtraction. The total number of spinophilin and synaptophysin granules were then counted by using ImageJ. […] HuC/D immunostaining was quantified by measuring fluorescence intensity in the proximal dendrite portion of each individual CA1 pyramidal neuron. […]

For assay [6], the system named is hippocampal CA1 area. Briefly: Immunohistochemistry of synaptic markers (GAP-43, neurogranin, synaptophysin) in hippocampal CA1 area of Fragile X mice. The class given is in vivo. The method, then:
as §1
Hippocampal slices at 400 μm thickness were further immersed in the fixative (4% paraformaldehyde in PBS) for 30 min at room temperature and then sectioned at 35 μm thickness by using a vibratome. Sections were then processed for immunohistochemistry as described in Hongpaisan et al., J Neurosci., 2004, 24:10878-10887. Tissue sections were incubated free-floating with primary antibodies against spinophilin (polyclonal IgG; 1:100; Upstate/Millipore), synaptophysin (monoclonal IgG; 1:2,000; Chemicon/Millipore), and/or HuC/D (monoclonal IgG; 1:100; Molecular Probes) at room temperature overnight. For a polyclonal antibody, tissue sections were incubated with Alexa Fluor 568 goat anti-rabbit IgG (1:200; Molecular Probes) for 3 h at room temperature. For monoclonal antibodies, sections were treated with a biotinylated secondary antibody (1:20; Vector Laboratories) for 3 h at room temperature and then with streptavidin conjugated with Alexa Fluor 488 (1:100; Molecular Probes) for 3 h at room temperature. Sections were mounted with […] mounting medium with DAPI to counterstain nuclei (Vector Laboratories) and imaged with the confocal microscope (512 pixels×512 pixels).
All data were quantified by using the ImageJ program. The appearance of spinophilin and synaptophysin profiles in a 63-μm×63-μm image taken from the superficial part of the stratum radiatum were analyzed with the photographic negative after background subtraction. The total number of spinophilin and synaptophysin granules were then counted by using ImageJ. Synaptophysin intensity was defined in the whole area of a 63-μm×63-μm image. HuC/D immunostaining was quantified by measuring fluorescence intensity in the proximal dendrite portion of each individual CA1 pyramidal neuron. The naive control data were set at 100%, and all other experiment data were defined as the percentage of their control.
as §2

Assay [7] concerns FMR1 mice. Briefly: Spatial water maze in Fragile X (FMR1) mice. In kind it is in vivo. As to conditions: 20 μg/m^2 tail i.v., 2 doses/week for 13 weeks, vs FMR1 with vehicle p<0.001.
Excerpt: Two types of mice (male, The Jackson Laboratories, ME, USA; 9-10 per group) were used in the study: FVB.129P2-Fmrl^tmlCgr/J (FMR1) and FVB.129P2-Pde6b^+ Tyr^c-ch/AntJ (as the control groups).
as §1
The first training of spatial water maze task began on the 10th day after the last dose. Mice were trained for 8 days (2 trials/day) to find a hidden platform, centered in one of the quadrants and submerged about 2 cm below the water surface. At the start of all trials, mice were placed individually in the water facing the maze wall, using different starting positions each trial, and allowed to swim until they found the platform, where they remained for 20 s, before being returned to their home cages. […] The swim path was recorded with a video-tracking system, which computed latency to the platform, swim distance, and percentage of time spent in the quadrants. After the training trials, a probe trial (a quadrant test or retention trial) was performed with the platform removed to assess memory retention for its location by the distance the mouse moved in the quadrants. The video-tracking system tracked the animal's movements in each quadrant during a period of one minute. […]

Assay [8] has as its system mushroom-shaped dendritic spines. As to conditions: rats; cited from earlier work.
Assay [9] has as its target T1, PKCε (Homo sapiens, UniProt Q02156).
T1 sequence (Q02156 1-737): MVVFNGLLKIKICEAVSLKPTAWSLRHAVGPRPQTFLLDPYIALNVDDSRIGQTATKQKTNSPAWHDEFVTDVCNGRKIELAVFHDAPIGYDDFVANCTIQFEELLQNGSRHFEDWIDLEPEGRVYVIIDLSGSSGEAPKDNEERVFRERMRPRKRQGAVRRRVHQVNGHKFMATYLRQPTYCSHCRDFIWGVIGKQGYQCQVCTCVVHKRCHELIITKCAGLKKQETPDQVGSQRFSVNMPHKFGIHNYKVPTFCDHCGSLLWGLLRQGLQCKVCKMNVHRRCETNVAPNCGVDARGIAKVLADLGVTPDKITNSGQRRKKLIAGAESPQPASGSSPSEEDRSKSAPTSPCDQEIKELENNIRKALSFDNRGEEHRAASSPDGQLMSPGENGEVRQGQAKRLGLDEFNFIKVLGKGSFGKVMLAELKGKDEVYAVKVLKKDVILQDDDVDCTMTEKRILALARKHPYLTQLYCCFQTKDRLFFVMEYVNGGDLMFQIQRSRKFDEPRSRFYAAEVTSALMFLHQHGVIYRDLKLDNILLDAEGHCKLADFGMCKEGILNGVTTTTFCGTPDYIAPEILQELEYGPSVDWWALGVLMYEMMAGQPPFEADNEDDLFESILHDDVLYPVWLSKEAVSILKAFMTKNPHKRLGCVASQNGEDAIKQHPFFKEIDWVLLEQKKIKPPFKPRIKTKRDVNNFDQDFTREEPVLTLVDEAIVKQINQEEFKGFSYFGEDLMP
As to conditions: cited from earlier work.

Assay [10] has as its system murine leukemias and solid tumors. Conditions: cited from earlier work.
In assay [11] the test system is cyclin dependent kinase 2 (Cdk2). As to conditions: at 5 ng/ml; cited from earlier work.
Assay [12] has as its system PKC. Conditions: K562 cells; cited from earlier work.
In assay [13] the test system is squamous cell carcinoma and melanoma. As to conditions: used topically; cited from earlier work.
Assay [14] deals with NCI 60 cell line screen. Conditions: cited from earlier work.
For assay [15], the target named is protein kinase C. Conditions: specifically the (−)-enantiomer; read-out: EC50 (potency); cited from earlier work.

For the compound `CCCCCCCC(=O)O[C@H]1/C(=C/C(=O)OC)C[C@H]2C[C@H](CO)OC(=O)C[C@H](O)C[C@@H]3CCC[C@H](C[C@@H]4CCO[C@H](/C=C/C(C)(C)[C@]1(O)O2)O4)O3` [Analog 1], the “affinity for PKC (in words)” value in [1] was “high affinity for PKC”.
Consider `CCC/C=C/C=C/C(=O)O[C@H]1/C(=C/C(=O)OC)C[C@H]2C[C@H]([C@@H](C)O)OC(=O)C[C@H](O)C[C@@H]3C[C@H](OC(C)=O)C(C)(C)[C@](O)(C[C@@H]4C/C(=C/C(=O)OC)C[C@H](/C=C/C(C)(C)[C@]1(O)O2)O4)O3` [Bryostatin 1, bryostatin-1], for which the “Aβ(1-42) levels in the brains” value in assay [2] is listed as “reduce”. Moreover, in assay [3], the “filopodia number per 100 μm of dendritic shaft (FIG. 6)” value is reported as “improved the transformation of filopodia to dendritic spines”; the “mushroom-shaped and total dendritic spines per 100 μm of dendritic shaft (FIG. 5)” value is listed as “prevented the loss”; the “number and density of dendritic mushroom spines (FIG. 4)” value is “restored the number and density of dendritic mushroom spines to wild-type levels”. Besides, the “ischemia-induced deficits in synaptogenesis, neurotrophic activity, and spatial learning and memory” value in [4] is recorded as “effectively rescued”. The “presence of synaptophysin (FIG. 3)” value in assay [5] is listed as “increased”. Besides, in assay [6] (Fragile X transgenic mice), the “postsynaptic membrane density, neurogranin; number of synapses (FIG. 8)” value is given as “can be restored”; the “presynaptic membrane density, GAP-43 (FIG. 7)” value is given as “restored presynaptic membrane density in Fragile X transgenic mice to wild type levels”; the “presynaptic vesicle concentration, synaptophysin fluorescence intensity (FIG. 9)” value was “significantly restored, and even enhanced”. Besides, the “number of presynaptic axonal boutons, synaptophysin grains (FIG. 9)” value in assay [6] (across experimental conditions) was “No difference”. Also, the “learning performance in water maze (FIG. 1)” value in assay [7] is “significantly improved the learning performance”. The “number of mushroom-shaped dendritic spines” value in assay [8] is “memory-specific increase”.
Turning to `CCCCCC1CC1CC1CC1CCCCCCCC(=O)O` (centres unmarked) [DCP-LA, 2-[(2-pentylcyclopropyl)methyl]cyclopropaneoctanoic acid], in assay [9], the “concentration of maximal effect on PKCε activation” value is 100 nM.
Take `C=C(C)[C@]12C[C@@H](COC(=O)c3ccccc3)[C@@]34OC5(O[C@@H]1[C@@H]3C1O[C@]1(CO)[C@@H](O)[C@@]1(O)[C@H]4[C@@H](C(C)CCCCCC[C@@H]5O)C(C)[C@@H]1OC(=O)c1ccccc1)O2` (some centres unmarked) [Gnidimacrin]: the “concentrations of potent antitumor activity” value in assay [10] is 0.1 to 1 nM. Besides, in [11], the “inhibition of Cdk2” value was 100%. In assay [12], the “concentration at which it acts as a PKC activator” value is on record as ~3 nM.
Regarding `C/C=C(/C)C(=O)O[C@H]1C(C)=C[C@]23C(=O)[C@@H](C=C(CO)[C@@H](O)[C@]12O)[C@H]1[C@@H](C[C@H]3C)C1(C)C` [Ingenol-3-angelate], the antitumor activity entry in [13] is reported as “possesses antitumor activity”.
For the compound `CC1=CC[C@H](C)C(C)(C)[C@@H]1/C=C/C(C)=C/CC[C@@]1(CO)[C@H](CCCO)/C(=C(/C)C=O)CC[C@]1(C)O` [Iripallidal], the “GI50 (concentration required to inhibit growth by 50%)” value in [14] is on record as “micromolar to nanomolar range”.
For `CCCCCCCCc1ccc2c3c(c[nH]c13)C[C@@H](CO)NC(=O)[C@H](C(C)C)N2C` [octylindolactam V, Octylindolactam V], the half-maximal effective concentration (EC50) in assay [15] is 29 nM.
